Data taken from patent EP0845266A2, “Sweet whey concentrate containing antioxidant compositions” (MK-Produktkontor GmbH, priority 1996, dated 1998).

Target: T1, Myeloperoxidase (MPO) (Homo sapiens, UniProt P05164)
T1 sequence (P05164 49-745): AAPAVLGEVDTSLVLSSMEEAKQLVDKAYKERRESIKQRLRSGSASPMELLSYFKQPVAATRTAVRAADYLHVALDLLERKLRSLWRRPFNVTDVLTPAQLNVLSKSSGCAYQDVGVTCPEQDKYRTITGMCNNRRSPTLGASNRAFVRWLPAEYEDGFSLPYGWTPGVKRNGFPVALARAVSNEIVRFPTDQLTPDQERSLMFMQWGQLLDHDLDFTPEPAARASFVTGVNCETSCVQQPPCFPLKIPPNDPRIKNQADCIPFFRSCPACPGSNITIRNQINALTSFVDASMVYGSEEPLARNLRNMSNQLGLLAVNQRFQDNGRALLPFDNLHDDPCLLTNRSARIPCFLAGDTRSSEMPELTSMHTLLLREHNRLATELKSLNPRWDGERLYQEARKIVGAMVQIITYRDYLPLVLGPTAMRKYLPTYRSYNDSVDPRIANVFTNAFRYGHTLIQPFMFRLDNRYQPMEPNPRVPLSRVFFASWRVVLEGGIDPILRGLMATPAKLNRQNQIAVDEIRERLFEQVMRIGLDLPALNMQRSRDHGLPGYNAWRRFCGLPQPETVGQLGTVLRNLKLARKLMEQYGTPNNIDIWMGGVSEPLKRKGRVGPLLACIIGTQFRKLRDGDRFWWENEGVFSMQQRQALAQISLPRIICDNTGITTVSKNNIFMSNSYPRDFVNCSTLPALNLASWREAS
Experiment: Myeloperoxidase reaction: MPO-catalysed formation of HOCl, measured as ethylene release from ACC by gas chromatography
Type: biochemical
Details: CAR, in mixtures SMK 3 mg im Ansatz, 30 min, 37 °C, pH 5,7, read-out: % Hemmung; for inhibition at 100 µM: 0,1 mM AN; for inhibition at 1000 µM: 1,0 mM AN
Excerpt: Die Inhibitionswirkung wurde in einem In-vitro-Teststystem geprüft, das die oxidativen Prozesse während eine Entzündung simulieren soll.
Myeloperoxidase (MPO) wird von aktivierten Leukozyten während der Degranulation in das Phagosom und das umliegende Gewebe abgegeben. Das Enzym katalysiert die Bildung von HOCl aus H2O2 und Chlorid. Durch Messung der HOCl-Konzentration in dem Reaktionssystem kann das Ausmaß der Inhibition bestimmt werden. Hypochlorit (HOCl) spaltet spezifisch Aminocyclopropancarbonsäure (ACC), wobei Ethylen entsteht.
Dieses wiederum kann gaschromatographisch identifiziert werden.
Der Einfluß einer Mischung aus Süßmolkekonzentrat (SMK) und Anserin bzw. Carnosin sowie der einzelnen Komponenten in den in Tabelle 1 angegebenen Konzentrationen auf die MPO-katalysierte Bildung von HOCl wurde untersucht. Tabelle 1
Es wurde folgender Ansatz verwendet: 0,15 M NaCl, 25 µM H2O2, 0,1 E MPO, 0,1 M Phosphatpuffer mit einem pH-Wert von 5,7 und 1 mM ACC. Die Inkubationsdauer beträgt 30 Minuten bei 37 °C. Die Ethylen-Freisetzungsrate eines Ansatzes ohne Zugabe potentieller Inhibitorstoffe entspricht einer Grundrate von 100% (0% Hemmung).

Compound | inhibition at 100 µM [%] | inhibition at 1000 µM [%]
Cn1cncc1C[C@H](NC(=O)CCN)C(=O)O [AN, Anserin] | 23 | 84
NCCC(=O)N[C@@H](Cc1cnc[nH]1)C(=O)O [CAR, Carnosin] | 23 | 86
